# In patent US6034056A, “Fibronectin adhesion inhibitors” (Zeneca Limited, priority 1994, dated 2000):
# Where a SMILES comes first, the peptide text is derived from it. [ ]: non-standard residue; d: D form. βAla = NCCC(=O)O
# Tests used:
# Jurkat cell = conditions: read-out: IC50, blocking Jurkat cell adhesion to CS-1 coated plates; cited from earlier work
# [1] = biological tests (not specified); conditions: at 200 μM
# αIIbβIIIa = αIIbβIIIa (Homo sapiens, UniProt P05106+P08514); conditions: cited from earlier work
# Jurkat cells = conditions: cited from earlier work
# αvβ3 = αvβ3 (Homo sapiens, UniProt P05106+P06756); conditions: cited from earlier work
# leukocyte cell = conditions: cited from earlier work
# [2] = test system: 120 kDa chymotryptic fragment of fibronectin; conditions: cited from earlier work
# Sequence of αIIbβIIIa (P08514 32-887 limits assumed): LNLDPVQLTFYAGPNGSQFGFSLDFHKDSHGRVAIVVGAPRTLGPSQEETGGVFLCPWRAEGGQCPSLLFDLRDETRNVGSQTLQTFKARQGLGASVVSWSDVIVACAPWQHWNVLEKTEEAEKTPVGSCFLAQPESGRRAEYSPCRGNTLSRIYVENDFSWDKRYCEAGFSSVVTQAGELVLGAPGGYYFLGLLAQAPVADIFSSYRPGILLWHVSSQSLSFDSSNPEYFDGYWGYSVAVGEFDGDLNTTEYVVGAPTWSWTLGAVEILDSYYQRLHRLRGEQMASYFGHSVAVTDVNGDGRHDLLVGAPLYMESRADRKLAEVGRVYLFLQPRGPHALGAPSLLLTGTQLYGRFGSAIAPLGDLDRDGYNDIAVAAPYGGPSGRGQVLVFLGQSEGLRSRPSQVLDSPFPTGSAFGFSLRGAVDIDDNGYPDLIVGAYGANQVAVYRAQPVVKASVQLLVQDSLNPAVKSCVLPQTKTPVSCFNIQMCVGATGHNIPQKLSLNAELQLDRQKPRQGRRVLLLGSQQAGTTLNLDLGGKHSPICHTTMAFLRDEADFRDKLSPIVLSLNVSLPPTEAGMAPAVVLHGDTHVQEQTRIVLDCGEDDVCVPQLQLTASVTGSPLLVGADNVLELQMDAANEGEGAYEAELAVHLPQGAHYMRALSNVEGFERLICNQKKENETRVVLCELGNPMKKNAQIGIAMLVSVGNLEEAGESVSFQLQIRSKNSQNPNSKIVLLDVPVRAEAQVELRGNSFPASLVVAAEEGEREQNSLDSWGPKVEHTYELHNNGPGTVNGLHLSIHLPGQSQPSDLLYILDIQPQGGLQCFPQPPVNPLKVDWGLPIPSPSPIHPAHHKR
# Sequence of αIIbβIIIa (P08514 891-1039 partner limits assumed): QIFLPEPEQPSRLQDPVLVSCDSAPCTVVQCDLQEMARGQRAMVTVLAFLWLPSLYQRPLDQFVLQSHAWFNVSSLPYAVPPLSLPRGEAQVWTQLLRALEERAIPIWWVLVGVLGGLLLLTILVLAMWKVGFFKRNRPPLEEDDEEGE
# Sequence of αIIbβIIIa (P05106 27-788): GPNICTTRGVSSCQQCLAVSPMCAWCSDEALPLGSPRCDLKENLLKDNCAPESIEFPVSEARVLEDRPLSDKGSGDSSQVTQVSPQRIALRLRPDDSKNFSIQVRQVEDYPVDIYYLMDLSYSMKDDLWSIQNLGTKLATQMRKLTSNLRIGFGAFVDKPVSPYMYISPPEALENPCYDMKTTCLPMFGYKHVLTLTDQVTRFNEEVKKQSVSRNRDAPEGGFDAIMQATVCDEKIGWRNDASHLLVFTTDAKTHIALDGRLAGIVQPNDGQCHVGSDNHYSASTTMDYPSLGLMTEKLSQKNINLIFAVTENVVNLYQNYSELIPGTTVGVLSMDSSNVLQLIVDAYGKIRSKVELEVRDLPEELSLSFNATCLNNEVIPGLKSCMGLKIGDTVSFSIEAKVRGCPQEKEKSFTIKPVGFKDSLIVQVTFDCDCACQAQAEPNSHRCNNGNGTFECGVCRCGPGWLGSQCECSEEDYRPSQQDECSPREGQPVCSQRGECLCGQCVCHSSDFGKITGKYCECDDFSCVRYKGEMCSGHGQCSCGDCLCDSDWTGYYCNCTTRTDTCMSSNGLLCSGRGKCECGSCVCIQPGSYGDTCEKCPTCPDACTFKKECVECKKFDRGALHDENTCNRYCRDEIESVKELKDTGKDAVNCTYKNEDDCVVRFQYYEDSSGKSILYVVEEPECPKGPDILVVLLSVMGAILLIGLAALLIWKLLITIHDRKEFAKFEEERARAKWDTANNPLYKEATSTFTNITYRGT
# Sequence of αvβ3 (P06756 31-889 limits assumed): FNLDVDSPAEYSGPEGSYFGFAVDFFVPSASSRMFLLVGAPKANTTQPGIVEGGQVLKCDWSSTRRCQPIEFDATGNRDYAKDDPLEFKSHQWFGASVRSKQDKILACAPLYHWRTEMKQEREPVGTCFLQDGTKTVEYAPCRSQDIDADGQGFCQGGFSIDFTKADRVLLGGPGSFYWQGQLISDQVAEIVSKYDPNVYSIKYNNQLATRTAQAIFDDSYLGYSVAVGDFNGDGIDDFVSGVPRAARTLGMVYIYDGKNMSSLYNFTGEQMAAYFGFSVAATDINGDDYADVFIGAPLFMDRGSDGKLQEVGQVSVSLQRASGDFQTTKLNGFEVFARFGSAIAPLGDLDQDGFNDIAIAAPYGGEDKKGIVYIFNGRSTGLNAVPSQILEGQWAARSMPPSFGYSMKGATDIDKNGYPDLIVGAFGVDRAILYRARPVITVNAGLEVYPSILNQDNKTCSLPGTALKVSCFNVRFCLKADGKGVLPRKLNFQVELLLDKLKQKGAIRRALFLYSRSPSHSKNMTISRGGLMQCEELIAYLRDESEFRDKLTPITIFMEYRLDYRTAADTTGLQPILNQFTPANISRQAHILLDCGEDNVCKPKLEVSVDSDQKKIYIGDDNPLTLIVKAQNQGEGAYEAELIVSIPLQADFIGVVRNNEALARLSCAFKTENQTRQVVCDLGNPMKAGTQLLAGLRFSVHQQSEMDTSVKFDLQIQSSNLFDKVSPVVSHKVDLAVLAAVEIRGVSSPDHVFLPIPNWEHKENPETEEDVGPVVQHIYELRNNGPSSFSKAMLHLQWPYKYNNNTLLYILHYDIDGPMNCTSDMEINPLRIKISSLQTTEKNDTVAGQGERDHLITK
# Sequence of αvβ3 (P06756 891-1048 partner limits assumed): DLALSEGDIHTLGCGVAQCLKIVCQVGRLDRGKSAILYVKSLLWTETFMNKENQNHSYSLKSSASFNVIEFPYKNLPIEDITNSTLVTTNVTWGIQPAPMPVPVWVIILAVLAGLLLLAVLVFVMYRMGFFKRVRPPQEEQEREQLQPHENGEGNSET
# Sequence of αvβ3 (P05106 27-788): as the sequence (P05106 27-788) above
compound,measurement,setting,value
Cys-Leu-His-Gly-Pro-Glu-Ile-Ieu-Asp-Val-Pro-Ser-Thr,IC50,Jurkat cell,30 µM
CC[C@H](C)[C@@H]1NC(=O)CCNC(=O)[C@H](C(C)C)NC(=O)[C@H](CC(=O)O)NC(=O)[C@H](CC(C)C)NC1=O (cyclo(DV[βAla]IL)),activity in biological tests,[1],inactive
1-adamantaneacetyl-Cys-Gly-Arg-Gly-Asp-Ser-Pro-Cys,inhibition of function in αIIbβIIIa-dependent assay,αIIbβIIIa,inhibited function
same,IC50,Jurkat cell,30 µM
same,inhibition of Jurkat cell binding to fibronectin coated plates,Jurkat cells,inhibited the binding
same,inhibition of function in αvβ3-dependent assay,αvβ3,inhibited function
Arg-Cys-Asp-thioproline-Cys,inhibition of leukocyte cell adhesion to fibronectin,leukocyte cell,inhibitor of leukocyte cell adhesion to fibronectin
same,inhibition of binding to 120 kDa fibronectin fragment,[2],inhibited the binding
